# Data published in patent US7723562B2, “Mice lacking alpha 1G showing enhanced novelty-seeking and alcohol preference and therapeutic methods for mood disorders by modulating alpha 1G T-type calcium channels” (Korea Institute of Science and Technology, priority 2004, dated 2010).
# Entries after “also recorded” stand apart in the source; their conditions may differ.
# Test system: α1G−/− transgenic mice
# Test: Mobility in an open field after drug treatment (pharmacological analysis)
# Assay type: in vivo, mouse
# Settings: 0.5 mg/kg injected into abdominal cavity, FIG. 8
# Source text: For reactivity test in an open field, a test animal was transferred to a test room one hour before the test began and each animal was put in an independent breeding cage for adaptation.
# In order to investigate whether or not mobility increase of α1G−/− transgenic mice is related to diseases such as attention-deficit hyperactive disorder, schizophrenia, stereotype, etc., the present inventors have performed analysis of pharmacological effect of lithium and amphetamine which have been used as a therapeutic agent for the above diseases.
# First, the effect of lithium and amphetamine on reactivity to a new subject was investigated. Particularly, one hour before exposing a test animal on an experimental device, lithium or amphetamine (0.5 mg/kg, injection 10 ml/kg) was injected into abdominal cavity of the animal. The test procedure was in accordance with that of reactivity test in an open field, but a breeding cage (24×18×13 cm) took the place of a white acryl open field in this example and a subject used was a styrofoam covered with 0.5 g aluminum foil and the size of which was 1.5×1.5×1.5 cm. Behavior of the animal was all recorded by a video camera for further analysis. Same standard and behavior index were used.
smiles,measurement,value
CC(N)Cc1ccccc1 (centres unmarked) [amphetamine],early mobility increase of α1G−/− transgenic mice,not mitigated; also recorded: did not decrease
same,non environment dependent mobility increase,over-induced; also recorded: increased excessively
